Where two headings read alike, the source gives them in different places.
Tested on: C. elegans
Experiment: microbe, parasite or virus in culture
Conditions: Caenorhabditis elegans
[1] = 0 h, read-out: Percentage of motility inhibition 0 h, Table S2, C. elegans SS assay, 110 μM, 0 h, averages of 4 data points
[2] = 24 h, read-out: Percentage of motility inhibition 24 h, Table S2, C. elegans SS assay, 110 μM, 24 h, averages of 4 data points
[3] = 0 h, read-out: Percentage of motility inhibition 0 h
[4] = 24 h, read-out: Percentage of motility inhibition 24 h

## C[C@@H]1O[C@@H](OC[C@H]2O[C@@H](Oc3cc(O)c4c(c3)O[C@H](c3ccc(O)c(O)c3)CC4=O)[C@H](O)[C@@H](O)[C@@H]2O)[C@H](O)[C@H](O)[C@H]1O [Eriocitrin]
[1]
  inhibition at 110 µM: 54%
[2]
  inhibition at 110 µM: 16%

## O=C1C[C@@H](c2ccc(O)c(O)c2)Oc2cc(O)cc(O)c21 [Eriodictyol]
[1]
  inhibition at 110 µM: 0%
[2]
  inhibition at 110 µM: 14%

## CC1(C)CC[C@]2(CO)CC[C@]3(C)C(=CC[C@@H]4[C@@]5(C)CC[C@H](O)C(C)(C)[C@@H]5CC[C@]43C)[C@@H]2C1 [Erythrodiol]
[1]
  inhibition at 110 µM: 11%
[2]
  inhibition at 110 µM: 68%

## CCOC(=O)CCC(=O)O[C@H]1[C@H](O[C@@H]2[C@@H](C)[C@H](O[C@H]3C[C@@](C)(OC)[C@@H](O)[C@H](C)O3)[C@@H](C)C(=O)O[C@H](CC)[C@@](C)(O)[C@H](O)[C@@H](C)C(=O)[C@H](C)C[C@@]2(C)O)O[C@H](C)C[C@@H]1N(C)C [Erythromycin Ethylsuccinate]
[1]
  inhibition at 110 µM: 24%
[2]
  inhibition at 110 µM: 7%

## C/C=C(\C)C(=O)O[C@H]1[C@H](OC(C)=O)[C@]2(CO)[C@H](O)C[C@]3(C)C(=CC[C@@H]4[C@@]5(C)CC[C@H](O[C@@H]6O[C@H](C(=O)O)[C@@H](O[C@@H]7O[C@H](CO)[C@@H](O)[C@H](O)[C@H]7O)[C@H](O)[C@H]6O[C@@H]6O[C@H](CO)[C@@H](O)[C@H](O)[C@H]6O)[C@](C)(CO)[C@@H]5CC[C@]43C)[C@@H]2CC1(C)C [Escin IA]
[1]
  inhibition at 110 µM: 0%
[2]
  inhibition at 110 µM: 0%

## C/C=C(/C)C(=O)O[C@H]1[C@H](OC(C)=O)[C@]2(CO)[C@H](O)C[C@]3(C)C(=CC[C@@H]4[C@@]5(C)CC[C@H](O[C@@H]6O[C@H](C(=O)O)[C@@H](O[C@@H]7O[C@H](CO)[C@@H](O)[C@H](O)[C@H]7O)[C@H](O)[C@H]6O[C@@H]6O[C@H](CO)[C@@H](O)[C@H](O)[C@H]6O)[C@](C)(CO)[C@@H]5CC[C@]43C)[C@@H]2CC1(C)C [Escin IB]
[1]
  inhibition at 110 µM: 0%
[2]
  inhibition at 110 µM: 0%

## C[C@]12CC[C@@H]3c4ccc(O)cc4CC[C@H]3[C@@H]1CC[C@@H]2O [Estradiol]
[1]
  inhibition at 110 µM: 1%
[2]
  inhibition at 110 µM: 2%

## C[C@]12CC[C@@H]3c4ccc(O)cc4CC[C@H]3[C@@H]1C[C@@H](O)[C@@H]2O [Estriol]
[1]
  inhibition at 110 µM: 2%
[2]
  inhibition at 110 µM: 10%

## C[C@]12CC[C@@H]3c4ccc(O)cc4CC[C@H]3[C@@H]1CCC2=O [Estrone]
[1]
  inhibition at 110 µM: 32%
[2]
  inhibition at 110 µM: 0%

## C#C[C@]1(O)CC[C@H]2[C@@H]3CCc4cc(O)ccc4[C@H]3CC[C@@]21C [Ethinylestradiol]
[1]
  inhibition at 110 µM: 33%
[2]
  inhibition at 110 µM: 15%

## CCc1cc(C(N)=S)ccn1 [Ethionamide]
[1]
  inhibition at 110 µM: 64%
[2]
  inhibition at 110 µM: 12%

## CCOC(=O)c1ccc(O)cc1 [Ethylparaben]
[1]
  inhibition at 110 µM: 32%
[2]
  inhibition at 110 µM: 8%

## COc1cc([C@@H]2c3cc4c(cc3[C@@H](O[C@@H]3O[C@@H]5CO[C@@H](C)O[C@H]5[C@H](O)[C@H]3O)[C@H]3COC(=O)[C@H]23)OCO4)cc(OC)c1O [Etoposide]
[1]
  inhibition at 110 µM: 0%
[2]
  inhibition at 110 µM: 4%

## Cc1cc(C#N)cc(C)c1Oc1nc(Nc2ccc(C#N)cc2)nc(N)c1Br [Etravirine]
[1]
  inhibition at 110 µM: 17%
[2]
  inhibition at 110 µM: 2%

## COc1ccc(-c2cc(=O)c3c(O)c(OC)c(OC)cc3o2)cc1O [Eupatorin]
[1]
  inhibition at 110 µM: 7%
[2]
  inhibition at 110 µM: 26%

## CC(C)=CCC[C@@H](C)[C@@H]1CC[C@]2(C)C3=C(CC[C@@]12C)[C@@]1(C)CC[C@H](O)C(C)(C)[C@@H]1CC3 [Euphol]
[1]
  inhibition at 110 µM: 0%
[2]
  inhibition at 110 µM: 41%

## C=C1[C@@H](O)[C@]2(O)OC[C@]34[C@H]2[C@@]2(C)[C@H](O)C(=O)C=C(C)[C@@H]2C[C@H]3OC(=O)[C@H](O)[C@@]14O [Eurycomanone]
[1]
  inhibition at 110 µM: 0%
[2]
  inhibition at 110 µM: 4%

## C[C@@H]1CC[C@]2(C(=O)O)CC[C@]3(C)C(=CC[C@@H]4[C@@]5(C)C[C@@H](O)[C@@H](O)C(C)(C)[C@@H]5CC[C@]43C)[C@@H]2[C@]1(C)O [Euscaphic acid]
[1]
  inhibition at 110 µM: 18%
[2]
  inhibition at 110 µM: 27%

## COc1ccc2c(OC)c3ccoc3nc2c1 [Evolitrine]
[1]
  inhibition at 110 µM: 0%
[2]
  inhibition at 110 µM: 15%

## CC(=O)OCC(CCn1cnc2cnc(N)nc21)COC(C)=O [Famciclovir]
[1]
  inhibition at 110 µM: 15%
[2]
  inhibition at 110 µM: 2%

## COc1ccc2cc1Oc1ccc(cc1)C[C@H]1c3cc(c(OC)cc3CCN1C)Oc1c(O)c(OC)cc3c1[C@H](C2)N(C)CC3 [Fangchinoline]
[1]
  inhibition at 110 µM: 0%
[2]
  inhibition at 110 µM: 0%

## Cc1oc(=O)oc1COC(=O)C1=C([C@H]2CCCO2)S[C@@H]2[C@@H]([C@@H](C)O)C(=O)N12 [Faropenem daloxate]
[1]
  inhibition at 110 µM: 5%
[2]
  inhibition at 110 µM: 17%

## Cc1c(O)c(C)c2c(c1O)C(=O)C[C@@H](c1ccc(O)cc1)O2 [Farrerol]
[3]
  inhibition at 110 µM: 6%
[4]
  inhibition at 110 µM: 9%

## O=C(C[C@H]1NCCC[C@@H]1O)Cn1cnc2ccccc2c1=O [Febrifugine]
[1]
  inhibition at 110 µM: 0%
[2]
  inhibition at 110 µM: 0%

## COC(=O)Nc1nc2ccc(Sc3ccccc3)cc2[nH]1 [Fenbendazole]
[1]
  inhibition at 110 µM: 8%
[2]
  inhibition at 110 µM: 14%

## CC12CCC(C1)C(C)(C)C2O (centres unmarked) [Fenchyl alcohol]
[1]
  inhibition at 110 µM: 2%
[2]
  inhibition at 110 µM: 0%

## CSc1ccc(OCc2ncc([N+](=O)[O-])n2C)cc1 [Fexinidazole]
[1]
  inhibition at 110 µM: 11%
[2]
  inhibition at 110 µM: 29%

## O=c1c(O)c(-c2ccc(O)c(O)c2)oc2cc(O)ccc12 [Fisetin]
[1]
  inhibition at 110 µM: 0%
[2]
  inhibition at 110 µM: 2%

## COc1cc(O)c(C(=O)/C=C/c2ccc(O)cc2)c(OC)c1 [Flavokawain C]
[1]
  inhibition at 110 µM: 18%
[2]
  inhibition at 110 µM: 20%

## O=c1cc(-c2ccccc2)oc2ccccc12 [Flavone]
[1]
  inhibition at 110 µM: 0%
[2]
  inhibition at 110 µM: 5%

## O=c1c(O)c(-c2ccccc2)oc2ccccc12 [Flavonol]
[1]
  inhibition at 110 µM: 2%
[2]
  inhibition at 110 µM: 10%

## CCC(=O)c1c(O)cc(O)cc1O [Flopropione]
[1]
  inhibition at 110 µM: 40%
[2]
  inhibition at 110 µM: 18%

## CS(=O)(=O)c1ccc([C@@H](O)[C@@H](CF)NC(=O)C(Cl)Cl)cc1 [Florfenicol]
[1]
  inhibition at 110 µM: 29%
[2]
  inhibition at 110 µM: 9%

## OC(Cn1cncn1)(Cn1cncn1)c1ccc(F)cc1F [Fluconazole]
[1]
  inhibition at 110 µM: 7%
[2]
  inhibition at 110 µM: 12%

## Nc1[nH]c(=O)ncc1F [Flucytosine]
[1]
  inhibition at 110 µM: 23%
[2]
  inhibition at 110 µM: 32%

## CC1CCc2cc(F)cc3c(=O)c(C(=O)O)cn1c23 (centres unmarked) [Flumequine]
[1]
  inhibition at 110 µM: 20%
[2]
  inhibition at 110 µM: 21%

## Nc1nc(=O)c2nc(CNc3ccc(C(=O)N[C@@H](CCC(=O)O)C(=O)O)cc3)cnc2[nH]1 [Folic acid]
[1]
  inhibition at 110 µM: 23%
[2]
  inhibition at 110 µM: 17%

## COc1ccc(-c2coc3cc(O)ccc3c2=O)cc1 [Formononetin]
[1]
  inhibition at 110 µM: 6%
[2]
  inhibition at 110 µM: 31%

## C=C[C@@]1(C)CC(=O)[C@]2(O)[C@@]3(C)[C@@H](O)CCC(C)(C)[C@@H]3[C@H](O)[C@H](OC(C)=O)[C@@]2(C)O1 [Forskolin]
[1]
  inhibition at 110 µM: 0%
[2]
  inhibition at 110 µM: 2%

## O=P(O)(O)OC(Cn1cncn1)(Cn1cncn1)c1ccc(F)cc1F [Fosfluconazole]
[1]
  inhibition at 110 µM: 17%
[2]
  inhibition at 110 µM: 0%

## CC1=C2C(=O)O[C@@H](c3ccoc3)[C@]2(C)CCC1 [Fraxinellone]
[1]
  inhibition at 110 µM: 0%
[2]
  inhibition at 110 µM: 6%

## O=C(CO)[C@@H](O)[C@H](O)[C@H](O)CO [Fructose]
[1]
  inhibition at 110 µM: 0%
[2]
  inhibition at 110 µM: 3%

## Cc1cccc(C)c1NC(=O)c1ccccc1C(=O)O [Ftaxilide]
[1]
  inhibition at 110 µM: 18%
[2]
  inhibition at 110 µM: 10%

## O=C(O)/C=C/C(=O)O [Fumaric acid]
[1]
  inhibition at 110 µM: 8%
[2]
  inhibition at 110 µM: 5%

## O=C1CN(/N=C/C=C/c2ccc([N+](=O)[O-])o2)C(=O)N1 [Furagin]
[1]
  inhibition at 110 µM: 6%
[2]
  inhibition at 110 µM: 0%

## O=C1OCCN1/N=C/c1ccc([N+](=O)[O-])o1 [Furazolidone]
[1]
  inhibition at 110 µM: 21%
[2]
  inhibition at 110 µM: 7%

## CC(=O)O[C@H]1C[C@@]2(C)[C@@H](C[C@@H](O)[C@H]3[C@@]4(C)CC[C@@H](O)[C@@H](C)[C@@H]4CC[C@@]32C)/C1=C(\CCC=C(C)C)C(=O)O [Fusidic acid]
[1]
  inhibition at 110 µM: 0%
[2]
  inhibition at 110 µM: 1%

## CC(C)OC(=O)[C@H](C)N[P@](=O)(CO[C@H](C)Cn1cnc2c(N)ncnc21)Oc1ccccc1 [GS‐7340]
[3]
  inhibition at 110 µM: 11%
[4]
  inhibition at 110 µM: 1%

## O=c1c(O)c(-c2ccccc2)oc2cc(O)cc(O)c12 [Galangin]
[1]
  inhibition at 110 µM: 10%
[2]
  inhibition at 110 µM: 8%

## O=C(O)c1cc(O)c(O)c(O)c1 [Gallic acid]
[1]
  inhibition at 110 µM: 66%
[2]
  inhibition at 110 µM: 34%

## CC(C)=CCC/C(C)=C/Cc1c(O)c(CC=C(C)C)c2c(c1O)C(=O)C1=C[C@@H]3C[C@H]4C(C)(C)O[C@@](C/C=C(/C)C(=O)O)(C3=O)[C@@]14O2 [Gambogenic acid]
[1]
  inhibition at 110 µM: 1%
[2]
  inhibition at 110 µM: 8%

## Nc1nc(O)c2ncn(COC(CO)CO)c2n1 [Ganciclovir]
[1]
  inhibition at 110 µM: 22%
[2]
  inhibition at 110 µM: 5%

## C/C(C=O)=C\CC[C@@H](C)[C@H]1CC[C@@]2(C)C3=CC[C@H]4C(C)(C)C(=O)CC[C@]4(C)C3=CC[C@]12C [Ganoderal A]
[1]
  inhibition at 110 µM: 7%
[2]
  inhibition at 110 µM: 25%

## C/C(=C\C(=O)CC(C)C(=O)O)[C@H]1C[C@H](O)[C@@]2(C)C3=C(C(=O)C[C@]12C)[C@@]1(C)CCC(=O)C(C)(C)[C@@H]1C[C@@H]3O (some centres unmarked) [Ganoderenic acid A]
[1]
  inhibition at 110 µM: 0%
[2]
  inhibition at 110 µM: 0%

## C/C(=C\C(=O)CC(C)C(=O)O)[C@H]1CC(=O)[C@@]2(C)C3=C(C(=O)C[C@]12C)[C@@]1(C)CC[C@H](O)C(C)(C)[C@@H]1C[C@@H]3O (some centres unmarked) [Ganoderenic acid B]
[1]
  inhibition at 110 µM: 0%
[2]
  inhibition at 110 µM: 42%

From PMC11855827, “High-Throughput Screening of Five Compound Libraries for Anthelmintic Activity and Toxicity Leads to the Discovery of Two Flavonoid Compounds” (International Journal of Molecular Sciences, 2025)
